Target: T1, PIP4K2C (Homo sapiens, UniProt Q8TBX8)
T1 sequence (Q8TBX8 1-421): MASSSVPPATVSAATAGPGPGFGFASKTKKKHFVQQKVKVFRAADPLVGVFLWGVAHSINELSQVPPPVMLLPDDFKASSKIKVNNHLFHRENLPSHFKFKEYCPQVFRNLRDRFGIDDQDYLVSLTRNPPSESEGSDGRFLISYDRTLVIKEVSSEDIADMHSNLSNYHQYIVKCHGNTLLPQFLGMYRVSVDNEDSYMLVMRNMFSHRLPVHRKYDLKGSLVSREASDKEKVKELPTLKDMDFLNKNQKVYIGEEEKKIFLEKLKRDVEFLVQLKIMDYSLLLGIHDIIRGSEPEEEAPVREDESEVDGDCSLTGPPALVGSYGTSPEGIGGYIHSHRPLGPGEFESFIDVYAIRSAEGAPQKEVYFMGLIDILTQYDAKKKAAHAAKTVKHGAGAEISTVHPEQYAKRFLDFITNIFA
Assay: HiBiT PIP4K2C degradation assay in MOLT-4 cells (endogenous PIP4K2C C-terminally tagged with HiBiT)
Assay type: cell-based
Parameters: untagged in primary human PBMCs and monocyte-derived dendritic cells
Details: 6 hours of incubation time, rather than 24 hours; MOLT-4, top concentration 10 micromolar; read-out: HiBIT-degradation MOLT4 PIP4k2C DC50 (6 hours, marked *)
Method in brief: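 Cells are plated onto compound dilutions (10 points, 3-fold, top 10 micromolar) and incubated 24 or 6 hours at 37 C. Lytic HiBiT detection then quantifies tagged endogenous PIP4K2C in MOLT-4, and a Hill fit yields DC50.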

SMILES | DC50
O=C1CCC(Nc2ccc(C3CCN(CC4(O)CCC(C(=O)N5CCC(Nc6ncc(F)c(-c7cccc(-n8ccccc8=O)c7)n6)CC5)CC4)CC3)c(F)c2)C(=O)N1 (stereo not drawn) [Compound 680, trans-3-((3-fluoro-4-(1-((4-(4-((5-fluoro-4-(3-(2-oxopyridin-1 (2H)-yl)phenyl)pyrimidin-2-yl)amino)piperidine-1-carbonyl)-1-hydroxycyclohexyl)methyl)piperidin-4-yl)phenyl)amino)piperidine-2,6-dione] | < 500 nM
O=C1CCC(Nc2ccc(N3CCN(C4CC5(C4)CN(C(=O)O[C@H]4CC[C@H](Nc6ncc(F)c(-c7cccc(-n8ccccc8=O)c7)n6)CC4)C5)CC3)c(F)c2)C(=O)N1 (stereo partly drawn) [Compound 681, trans-4-((5-fluoro-4-(3-(2-oxopyridin-1 (2H)-yl)phenyl)pyrimidin-2-yl)amino)cyclohexyl 6-(4-(4-((2,6-dioxopiperidin-3-yl)amino)-2-fluorophenyl)piperazin-1-yl)-2-azaspiro[3.3]heptane-2-carboxylate] | < 500 nM
O=C1CCC(Nc2ccc(C3CCN(CC4CCC(C(=O)N5CCC(Nc6ncc(F)c(-c7cccc(N8CCCCC8)c7)n6)CC5)CC4)CC3)c(F)c2)C(=O)N1 (stereo not drawn) [Compound 682, trans-3-((3-fluoro-4-(1-((4-(4-((5-fluoro-4-(3-(piperidin-1-yl)phenyl)pyrimidin-2-yl)amino)piperidine-1-carbonyl)cyclohexyl)methyl)piperidin-4-yl)phenyl)amino)piperidine-2,6-dione] | < 500 nM
O=C1CCC(Nc2ccc(C3CCN(C[C@H]4CC[C@H](C(=O)N5CCC(Nc6ncc(F)c(-c7cccc(N8CCOCC8=O)c7)n6)CC5)CC4)CC3)c(F)c2)C(=O)N1 (stereo partly drawn) [Compound 683, 3-((3-fluoro-4-(1-(((trans)-4-(4-((5-fluoro-4-(3-(3-oxomorpholino)phenyl)pyrimidin-2-yl)amino)piperidine-1-carbonyl)cyclohexyl)methyl)piperidin-4-yl)phenyl)amino)piperidine-2,6-dione] | > 5000 nM
O=C1CCC(Nc2ccc(C3CCN(C[C@H]4CC[C@H](C(=O)N5CCC(Nc6ncc(F)c(-c7cccc(N8CCCOC8=O)c7)n6)CC5)CC4)CC3)c(F)c2)C(=O)N1 (stereo partly drawn) [Compound 684, trans-3-((3-fluoro-4-(1-((4-(4-((5-fluoro-4-(3-(2-oxo-1,3-oxazinan-3-yl)phenyl)pyrimidin-2-yl)amino)piperidine-1-carbonyl)cyclohexyl)methyl)piperidin-4-yl)phenyl)amino)piperidine-2,6-dione] | < 500 nM
O=C1CCC(Nc2ccc(C3CCN(C[C@H]4CC[C@H](C(=O)N5CCC(Nc6ncc(F)c(-c7cccc(N8CCCCC8=O)c7)n6)CC5)CC4)CC3)c(F)c2)C(=O)N1 (stereo partly drawn) [Compound 685, 3-((3-fluoro-4-(1-((trans-4-(4-((5-fluoro-4-(3-(2-oxopiperidin-1-yl)phenyl)pyrimidin-2-yl)amino)piperidine-1-carbonyl)cyclohexyl)methyl)piperidin-4-yl)phenyl)amino)piperidine-2,6-dione] | < 500 nM
O=C1CCC(Nc2ccc(N3CCN(CC4CCN(C(=O)[C@H]5CC[C@H](Nc6ncc(F)c(-c7cccc(N8CCOCC8)c7)n6)CC5)CC4)CC3)c(F)c2)C(=O)N1 (stereo partly drawn) [Compound 686, trans-3-((3-fluoro-4-(4-((1-(4-((5-fluoro-4-(3-morpholinophenyl)pyrimidin-2-yl)amino)cyclohexane-1-carbonyl)piperidin-4-yl)methyl)piperazin-1-yl)phenyl)amino)piperidine-2,6-dione] | < 500 nM
O=C1CCC(Nc2ccc(N3CCN(C4CCN(C(=O)O[C@H]5CC[C@H](Nc6ncc(F)c(-c7cccc(N8CCCCC8)c7)n6)CC5)CC4)CC3)c(F)c2)C(=O)N1 (stereo partly drawn) [Compound 687, trans-4-((5-fluoro-4-(3-(piperidin-1-yl)phenyl)pyrimidin-2-yl)amino)cyclohexyl 4-(4-(4-((2,6-dioxopiperidin-3-yl)amino)-2-fluorophenyl)piperazin-1-yl)piperidine-1-carboxylate] | < 500 nM
O=C1CCC(Nc2ccc(N3CCN(C4CCN(C(=O)O[C@H]5CC[C@H](Nc6ncc(F)c(-c7cccc(N8CCOCC8=O)c7)n6)CC5)CC4)CC3)c(F)c2)C(=O)N1 (stereo partly drawn) [Compound 688, trans-4-((5-fluoro-4-(3-(3-oxomorpholino)phenyl)pyrimidin-2-yl)amino)cyclohexyl 4-(4-(4-((2,6-dioxopiperidin-3-yl)amino)-2-fluorophenyl)piperazin-1-yl)piperidine-1-carboxylate] | < 500 nM
O=C1CCC(Nc2ccc(C3CCN(C4CCN(C(=O)O[C@H]5CC[C@H](Nc6ncc(F)c(-c7cccc(N8CCCCC8)c7)n6)CC5)CC4)CC3)c(F)c2)C(=O)N1 (stereo partly drawn) [Compound 689, trans-4-((5-fluoro-4-(3-(piperidin-1-yl)phenyl)pyrimidin-2-yl)amino)cyclohexyl 4-(4-((2,6-dioxopiperidin-3-yl)amino)-2-fluorophenyl)-[1,4′-bipiperidine]-1′-carboxylate] | < 500 nM
O=C1CCC(Nc2ccc(C3CCN(C4CCN(C(=O)O[C@H]5CC[C@H](Nc6ncc(F)c(-c7cccc(N8CCOCC8=O)c7)n6)CC5)CC4)CC3)c(F)c2)C(=O)N1 (stereo partly drawn) [Compound 690, trans-4-((5-fluoro-4-(3-(3-oxomorpholino)phenyl)pyrimidin-2-yl)amino)cyclohexyl 4-(4-((2,6-dioxopiperidin-3-yl)amino)-2-fluorophenyl)-[1,4′-bipiperidine]-1′-carboxylate] | < 500 nM
O=C1CCC(Nc2ccc(N3CCC(CC4(O)CCN(C(=O)[C@H]5CC[C@H](Nc6ncc(F)c(-c7cccc(-n8ccccc8=O)c7)n6)CC5)CC4)CC3)c(F)c2)C(=O)N1 (stereo partly drawn) [Compound 691, trans-3-((3-fluoro-4-(4-((1-(4-((5-fluoro-4-(3-(2-oxopyridin-1 (2H)-yl)phenyl)pyrimidin-2-yl)amino)cyclohexane-1-carbonyl)-4-hydroxypiperidin-4-yl)methyl)piperidin-1-yl)phenyl)amino)piperidine-2,6-dione] | < 500 nM
O=C1CCC(Nc2ccc(C3CCN([C@H]4CC[C@H](NC(=O)[C@H]5CC[C@H](Nc6ncc(F)c(-c7cccc(-n8ccccc8=O)c7)n6)CC5)CC4)CC3(F)F)c(F)c2)C(=O)N1 (stereo partly drawn) [Compound 692, trans-N-(trans-4-(4-(4-((2,6-dioxopiperidin-3-yl)amino)-2-fluorophenyl)-3,3-difluoropiperidin-1-yl)cyclohexyl)-4-((5-fluoro-4-(3-(2-oxopyridin-1 (2H)-yl)phenyl)pyrimidin-2-yl)amino)cyclohexane-1-carboxamide] | < 500 nM
O=C1CCC(Nc2ccc(C3CCN(C[C@H]4CC[C@H](C(=O)N5CCC(Nc6ncc(F)c(-c7cccc(-n8ccccc8=O)c7)n6)CC5)CC4)CC3)c(F)c2)C(=O)N1 (stereo partly drawn) [Compound 693, 3-((3-fluoro-4-(1-(((trans)-4-(4-((5-fluoro-4-(3-(2-oxopyridin-1 (2H)-yl)phenyl)pyrimidin-2-yl)amino)piperidine-1-carbonyl)cyclohexyl)methyl)piperidin-4-yl)phenyl)amino)piperidine-2,6-dione] | < 500 nM
O=C1CCC(Nc2ccc(C3CCN(C4CCC(C(=O)N[C@H]5CC[C@H](Nc6ncc(F)c(-c7cccc(-n8ccccc8=O)c7)n6)CC5)CC4F)CC3)c(F)c2)C(=O)N1 (stereo partly drawn) [Compound 694, (1R,3S,4R)-4-(4-(4-((2,6-dioxopiperidin-3-yl)amino)-2-fluorophenyl)piperidin-1-yl)-3-fluoro-N-((trans)-4-((5-fluoro-4-(3-(2-oxopyridin-1 (2H)-yl)phenyl)pyrimidin-2-yl)amino)cyclohexyl)cyclohexane-1-carboxamide] | < 500 nM
O=C1CCC(Nc2ccc(C3CCN(C4CCN(C(=O)O[C@H]5CC[C@H](Nc6ncc(F)c(-c7cccc(-n8ccccc8=O)c7)n6)CC5)CC4F)CC3)c(F)c2)C(=O)N1 (stereo partly drawn) [Compound 695, trans-4-((5-fluoro-4-(3-(2-oxopyridin-1 (2H)-yl)phenyl)pyrimidin-2-yl)amino)cyclohexyl 4-(4-((2,6-dioxopiperidin-3-yl)amino)-2-fluorophenyl)-3′-fluoro-[1,4′-bipiperidine]-1′-carboxylate] | < 500 nM
O=C1CCC(Nc2ccc(C3CCN([C@H]4CC[C@H](NC(=O)[C@H]5CC[C@H](Nc6ncc(F)c(-c7ccnc(-n8ccccc8=O)c7)n6)CC5)CC4)CC3)c(F)c2)C(=O)N1 (stereo partly drawn) [Compound 696, trans-N-(trans-4-(4-(4-((2,6-dioxopiperidin-3-yl)amino)-2-fluorophenyl)piperidin-1-yl)cyclohexyl)-4-((5-fluoro-4-(2-oxo-2H-[1,2′-bipyridin]-4′-yl)pyrimidin-2-yl)amino)cyclohexane-1-carboxamide] | < 500 nM
O=C1CCC(Nc2ccc(C3CCN(CCC4CCN(C(=O)O[C@H]5CC[C@H](Nc6ncc(F)c(-c7cccc(-n8ccccc8=O)c7)n6)CC5)CC4)CC3)c(F)c2)C(=O)N1 (stereo partly drawn) [Compound 697, trans-4-((5-fluoro-4-(3-(2-oxopyridin-1 (2H)-yl)phenyl)pyrimidin-2-yl)amino)cyclohexyl 4-(2-(4-(4-((2,6-dioxopiperidin-3-yl)amino)-2-fluorophenyl)piperidin-1-yl)ethyl)piperidine-1-carboxylate] | < 500 nM

From patent US20260355196A1, “INHIBITORS AND DEGRADERS OF PIP4K PROTEIN” (Larkspur Biosciences, Inc., priority 2023, published 2026)
